Common to all, as to assay type: binding
One experiment has as its target T1, hSERT transporter (Homo sapiens, UniProt P31645).
T1 construct: expressed in transfected cells; membrane preparation
Put plainly: Human serotonin transporter (hSERT) scintillation proximity assay, competition with [3H]-Citalopram. The following applies: membranes of HEK-293 cells expressing recombinant hSERT, Cheng-Prusoff. The method, then:
The screening assay of this example was used to determine the affinity of ligands at the hSERT transporter by competition with [^3H]-Citalopram.
Scintillation Proximity Assay (SPA) works by bringing radioligand within close proximity to the bead's scintillant to stimulate light emission. In this assay, the receptor-containing membranes were pre-coupled to the SPA beads and the binding of the appropriate radioligand to the transporter was measured. The light emission was proportional to the amount of bound radioligand. Unbound radioligand produced no signal as a result of distant proximity to scintillant (lack of energy transfer). […]
(§1) Cell membranes were prepared using a membrane preparation buffer of 50 mM TRIS (pH 7.4). […] After a second centrifugation, the pellet was re-homogenized and brought to a final volume determined during the assay. […]
The % inhibition was calculated for each compound tested [(Compound counts per minute (CPM) at maximum concentration-Non-Specific CPM)/Total CPM*100]. […]
(§2) [formula] where max=total binding, min=non specific binding, x=concentration (M) of the tested compound and n=Hill slope. The inhibition dissociation constant (Ki) of each compound was determined according to the method of Cheng-Prusoff and then converted into negative logarithm (pKi) of the Ki.
Background: Scintillation proximity formats need no separation of bound from free tracer.

A further experiment concerns the target T2, hNET transporter (Homo sapiens, UniProt P23975).
T2 construct: expressed in transfected cells; membrane preparation
Nature of the experiment: Human norepinephrine transporter (hNET) scintillation proximity assay, competition with [3H]-Nisoxetine. The conditions noted are these: membranes of HEK-293 cells expressing recombinant hNET, Cheng-Prusoff. The protocol:
This assay was used to determine the affinity of ligands for the hNET transporter by competition with [^3H]-Nisoxetine. As in the hSERT assay of the above example, receptor-containing membranes were pre-coupled to the SPA beads and the binding of the appropriate radioligand to the transporter was measured. The light emission was proportional to the amount of bound radioligand, with unbound radioligand producing no signal.
HEK-293 cells (Tatsumi et al., Eur. J. Pharmacol. 1997, 30, 249-258) stably expressing recombinant hNET (Clone: HEK-hNET #2) were maintained with media (DMEM hi glucose with 10% FBS, 300 μg/ml G418 and 2 mM L-Glutamine) and incubated at 37° C. with 5% CO2. Cells were released from culture flasks using PBS for 1-2 minutes. […]
as §1
^3[H] […] The mixtures were allowed to stand at room temperature for one hour, and were then counted on a Packard TopCount LCS, a generic SPA counting protocol settings (Energy Range: Low, Efficiency Mode: Normal, Region A: 1.50-35.00, Region B: 1.50-256.00, Count Time (min.): 0.40, Background Subtract: none, Half-Life Correction: no, Quench Indicator: tSIS, Platemap blank subtraction: No, Cross talk reduction: Off). […]

In experiment [1] the target is T3, human dopamine transporter (hDAT) (Homo sapiens, UniProt Q01959).
T3 construct: expressed in transfected cells; whole cells plated on Cell-Tak coated 96 well plates
Put plainly: Human dopamine transporter scintillation proximity assay, competition with [3H]-Vanoxerine. The following applies: HEK-293 cells expressing recombinant hDAT; [3H]-Vanoxerine (GBR 12909); Cheng-Prusoff. The protocol:
This assay was used to determine the affinity of ligands for the dopamine transporter by competition with [^3H]-Vanoxerine.
HEK-293 cells (Tatsumi et al., Eur. J. Pharmacol. 1997, 30, 249-258) stably expressing recombinant hDAT were maintained with media (DMEM hi glucose with 10% FBS, 300 μg/ml G418 and 2 mM L-Glutamine) and incubated at 37° C. with 5% CO2. Cells were plated four hours prior to experiment by placing approximately 30,000 cells per well (in PBS) on white, opaque Cell-Tak coated 96 well plates. Extra buffer was apriated from the cell plates using an ELx405 plate washer.
^3[H] vanoxerine (GBR 12909) radioligand, specific activity approximately 59 Ci/mmol, stock concentration, 400 nM, and 50 mM Tris-HCl, 300 mM NaCl, (pH 7.4) buffers were used for Scintillation Proximity Assay IC50/Ki determination. […]
The % inhibition was calculated for each compound tested [(Compound CPM at maximum concentration-Non-Specific CPM)/Total CPM*100]. […]
as §2

The values below come from patent publication US7622462B2, “Benzazepine derivatives and uses thereof” (Roche Palo Alto LLC, priority 2006, dated 2009).

Broadly, the Ki is the equilibrium dissociation constant of an inhibitor or competing ligand from its target.

T1 sequence (P31645 whole entry): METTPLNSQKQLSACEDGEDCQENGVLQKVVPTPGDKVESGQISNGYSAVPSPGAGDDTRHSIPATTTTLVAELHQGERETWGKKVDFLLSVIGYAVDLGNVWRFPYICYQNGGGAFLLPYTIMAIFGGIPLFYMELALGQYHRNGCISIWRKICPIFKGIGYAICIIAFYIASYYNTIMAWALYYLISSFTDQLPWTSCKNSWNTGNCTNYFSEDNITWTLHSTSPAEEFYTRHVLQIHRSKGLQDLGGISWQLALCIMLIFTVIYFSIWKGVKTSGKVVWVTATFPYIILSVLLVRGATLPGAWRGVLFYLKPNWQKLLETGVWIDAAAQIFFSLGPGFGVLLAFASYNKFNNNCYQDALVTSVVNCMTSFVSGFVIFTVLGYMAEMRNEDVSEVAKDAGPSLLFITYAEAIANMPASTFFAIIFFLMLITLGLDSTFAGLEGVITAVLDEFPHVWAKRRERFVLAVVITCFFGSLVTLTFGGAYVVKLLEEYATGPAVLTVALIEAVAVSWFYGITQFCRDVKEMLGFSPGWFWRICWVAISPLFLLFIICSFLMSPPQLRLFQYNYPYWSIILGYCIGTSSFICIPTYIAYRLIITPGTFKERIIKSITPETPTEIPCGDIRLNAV
T3 sequence (Q01959 whole entry): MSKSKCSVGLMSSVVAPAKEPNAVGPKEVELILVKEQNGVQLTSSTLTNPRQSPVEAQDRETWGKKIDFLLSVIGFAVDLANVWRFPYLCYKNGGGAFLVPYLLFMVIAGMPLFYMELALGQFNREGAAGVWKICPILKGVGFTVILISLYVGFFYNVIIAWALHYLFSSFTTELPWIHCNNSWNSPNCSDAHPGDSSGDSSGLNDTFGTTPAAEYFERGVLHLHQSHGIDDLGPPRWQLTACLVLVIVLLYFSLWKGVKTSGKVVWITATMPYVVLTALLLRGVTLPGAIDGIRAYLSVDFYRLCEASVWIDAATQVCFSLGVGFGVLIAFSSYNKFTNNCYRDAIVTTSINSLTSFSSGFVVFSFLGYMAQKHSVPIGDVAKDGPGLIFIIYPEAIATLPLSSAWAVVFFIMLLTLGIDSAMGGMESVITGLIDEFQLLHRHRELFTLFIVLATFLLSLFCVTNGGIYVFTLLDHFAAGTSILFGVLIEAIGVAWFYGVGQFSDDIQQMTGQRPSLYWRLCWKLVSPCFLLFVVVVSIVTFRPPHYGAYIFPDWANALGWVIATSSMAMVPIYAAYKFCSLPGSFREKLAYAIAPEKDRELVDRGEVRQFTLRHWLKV
T2 sequence (P23975 whole entry): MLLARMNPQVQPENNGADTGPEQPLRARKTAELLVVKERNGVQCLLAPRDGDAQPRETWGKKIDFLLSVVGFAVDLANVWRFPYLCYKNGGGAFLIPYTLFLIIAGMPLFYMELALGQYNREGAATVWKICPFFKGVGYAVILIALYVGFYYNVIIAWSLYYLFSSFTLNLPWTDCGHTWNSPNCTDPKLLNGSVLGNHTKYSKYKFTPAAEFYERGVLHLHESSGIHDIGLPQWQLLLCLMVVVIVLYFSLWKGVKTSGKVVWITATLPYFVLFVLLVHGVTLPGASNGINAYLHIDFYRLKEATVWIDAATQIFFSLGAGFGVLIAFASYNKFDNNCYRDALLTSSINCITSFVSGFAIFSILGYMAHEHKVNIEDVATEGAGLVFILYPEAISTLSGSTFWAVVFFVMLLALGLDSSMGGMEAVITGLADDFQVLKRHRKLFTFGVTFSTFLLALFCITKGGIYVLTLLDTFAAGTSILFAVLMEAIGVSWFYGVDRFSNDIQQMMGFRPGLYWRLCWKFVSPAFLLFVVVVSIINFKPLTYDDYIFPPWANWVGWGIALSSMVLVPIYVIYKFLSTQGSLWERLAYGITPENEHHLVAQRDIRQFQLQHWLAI

For `c1ccc2c(c1)CNCCC2c1ccc2[nH]ccc2c1` (stereo not drawn) [5-(1H-Indol-5-yl)-2,3,4,5-tetrahydro-1H-benzo[c]azepine], the Ki on hSERT transporter was roughly 0.126 µM; at hNET transporter, roughly 0.01 µM; in experiment [1], roughly 0.002 µM.
